Assay results from patent US12281122B1, “PI3K inhibitors” (Cogent Biosciences, Inc., priority 2023, dated 2025).
pIC50: −log10 of the molar value.

How the values were obtained:
[1] = system: T47D (PI3Kα-H1047R) cell line; assay: HTRF phospho-AKT(S473) cell assay in T47D cells; format: cell-based, human
How it was run: (§1)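 Cells plated overnight (T47D in RPMI/10% FBS/0.2 units/mL insulin; SKBR3 in McCoy's 5A/10% FBS), then given 12-point 1:3 compound series (top 5 μM T47D, 10 μM SKBR3; ≤0.5% DMSO) for 2 h at 37° C. SKBR3 stimulated with 70 ng/ml PDGF-BB for final 15 min. Lysate pAKT(S473) by HTRF; IC50 calculated.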

[2] = system: SKBR3 (PI3Kα-Wild Type) cell line; assay: HTRF phospho-AKT(S473) cell assay in SKBR3 cells; format: cell-based, human
How it was run: as §1

[3] = Homo sapiens; T47D (PI3Kα-H1047R) cells, HTRF phospho-AKT(S473), 2 hours compound incubation
[4] = Homo sapiens, SK-BR-3; SKBR3 (PI3Kα-Wild Type) cells, HTRF phospho-AKT(S473), 2 hours compound incubation, PDGF-BB stimulated
[5] = Homo sapiens; HTRF phospho-AKT(S473), T47D (PI3Kα-H1047R) cells, 2 hours compound incubation
[6] = Homo sapiens, SK-BR-3; HTRF phospho-AKT(S473), SKBR3 (PI3Kα-Wild Type) cells, 2 hours compound incubation, PDGF-BB stimulated

pIC50 [1, 3] | pIC50 [2, 4] | pIC50 [1, 5] | pIC50 [2, 6] | Compound
> 6.60 | 5.30 to 6.00 | – | – | Cc1cc([C@@H](C)Nc2ccc(Cl)nc2C(=O)NS(C)(=O)=O)c2nc(N3CCC(c4cc(N)n(C)n4)CC3)n(C)c(=O)c2c1 [Compound 338, (R)-3-((1-(2-(4-(5-amino-1-methyl-1H-pyrazol-3-yl)piperidin-1-yl)-3,6-dimethyl-4-oxo-3,4-dihydroquinazolin-8-yl)ethyl)amino)-6-chloro-N-(methylsulfonyl) picolinamide]
– | – | > 6.60 | 5.30 to 6.00 | Cc1cc([C@@H](C)Nc2ccc(Cl)nc2C(=O)NS(C)(=O)=O)c2nc(N3CCC(c4nn(C)nc4C)CC3)n(C)c(=O)c2c1 [Compound 506, (R)-6-chloro-3-((1-(2-(4-(2,5-dimethyl-2H-1,2,3-triazol-4-yl)piperidin-1-yl)-3,6-dimethyl-4-oxo-3,4-dihydroquinazolin-8-yl)ethyl)amino)-N-(methylsulfonyl) picolinamide]
> 6.60 | 5.30 to 6.00 | – | – | Cc1cc([C@@H](C)Nc2ccc(Cl)nc2C(=O)NS(C)(=O)=O)c2nc(N3CCc4nn(CC5CC5)cc4C3)n(C)c(=O)c2c1 [Compound 279, (R)-6-chloro-3-((1-(2-(2-(cyclopropylmethyl)-2,4,6,7-tetrahydro-5H-pyrazolo[4,3-c]pyridin-5-yl)-3,6-dimethyl-4-oxo-3,4-dihydroquinazolin-8-yl)ethyl)amino)-N-(methylsulfonyl) picolinamide]
> 6.60 | 5.30 to 6.00 | – | – | Cc1cc([C@@H](C)Nc2ccc(Cl)nc2C(=O)NS(C)(=O)=O)c2nc(N3CCC[C@@H](c4ccc(C)nc4)C3)n(C)c(=O)c2c1 (mixture of isomers) [Compound 215, 6-chloro-3-(((R)-1-(3,6-dimethyl-2-((RS)-3-(6-methylpyridin-3-yl)piperidin-1-yl)-4-oxo-3,4-dihydroquinazolin-8-yl)ethyl)amino)-N-(methylsulfonyl) picolinamide]
– | – | 6.30 to 6.60 | 5.30 to 6.00 | Cc1cc([C@@H](C)Nc2ccc(Cl)nc2C(=O)NS(C)(=O)=O)c2nc(N3CCC(c4nnc(C)o4)CC3)n(C)c(=O)c2c1 [Compound 557, (R)-6-chloro-3-((1-(3,6-dimethyl-2-(4-(5-methyl-1,3,4-oxadiazol-2-yl)piperidin-1-yl)-4-oxo-3,4-dihydroquinazolin-8-yl)ethyl)amino)-N-(methylsulfonyl) picolinamide]
> 6.60 | 5.30 to 6.00 | – | – | Cc1cc([C@@H](C)Nc2ccc(Cl)nc2C(=O)NS(C)(=O)=O)c2nc(N3CCC(Nc4cnn(C)c4)CC3)n(C)c(=O)c2c1 [Compound 291, (R)-6-chloro-3-((1-(3,6-dimethyl-2-(4-((1-methyl-1H-pyrazol-4-yl)amino)piperidin-1-yl)-4-oxo-3,4-dihydroquinazolin-8-yl)ethyl)amino)-N-(methylsulfonyl) picolinamide]
– | – | 6.30 to 6.60 | ≤ 5.30 | Cc1cc([C@@H](C)Nc2ccc(Cl)nc2C(=O)NS(C)(=O)=O)c2nc(N3CCC(c4nc(C)nn4C)CC3)n(C)c(=O)c2c1 [Compound 523, (R)-6-chloro-3-((1-(2-(4-(1,3-dimethyl-1H-1,2,4-triazol-5-yl)piperidin-1-yl)-3,6-dimethyl-4-oxo-3,4-dihydroquinazolin-8-yl)ethyl)amino)-N-(methylsulfonyl) picolinamide]

Second part, the compound before the results:

Compound | pIC50 [1, 3] | pIC50 [2, 4] | pIC50 [1, 5] | pIC50 [2, 6]
Cc1cc([C@@H](C)Nc2ccc(Cl)nc2C(=O)NS(C)(=O)=O)c2nc(N3CCN(c4cnn(C)c4)CC3)n(C)c(=O)c2c1 [Compound 188, (R)-6-chloro-3-((1-(3,6-dimethyl-2-(4-(1-methyl-1H-pyrazol-4-yl)piperazin-1-yl)-4-oxo-3,4-dihydroquinazolin-8-yl)ethyl)amino)-N-(methylsulfonyl) picolinamide] | > 6.60 | 5.30 to 6.00 | – | –
Cc1cc([C@@H](C)Nc2ccc(Cl)nc2C(=O)NS(C)(=O)=O)c2nc(-c3ccc([C@@H]4CN(C)CCO4)cc3)n(C)c(=O)c2c1 (relative stereo) [Compound 803, 6-chloro-3-(((R)-1-(3,6-dimethyl-2-(4-((R*)-4-methylmorpholin-2-yl)phenyl)-4-oxo-3,4-dihydroquinazolin-8-yl)ethyl)amino)-N-(methylsulfonyl) picolinamide] | – | – | > 6.60 | ≤ 5.30
Cc1cc([C@@H](C)Nc2ccc(Cl)nc2C(=O)NS(C)(=O)=O)c2nc(N3CCN(c4cnccn4)CC3)n(C)c(=O)c2c1 [Compound 714, (R)-6-chloro-3-((1-(3,6-dimethyl-4-oxo-2-(4-(pyrazin-2-yl)piperazin-1-yl)-3,4-dihydroquinazolin-8-yl)ethyl)amino)-N-(methylsulfonyl) picolinamide] | – | – | > 6.60 | 5.30 to 6.00
Cc1cc([C@@H](C)Nc2ccc(Cl)nc2C(=O)NS(C)(=O)=O)c2nc(-c3ccc(-c4cn(C)cn4)cc3)n(C)c(=O)c2c1 [Compound 802, (R)-6-chloro-3-((1-(3,6-dimethyl-2-(4-(1-methyl-1H-imidazol-4-yl)phenyl)-4-oxo-3,4-dihydroquinazolin-8-yl)ethyl)amino)-N-(methylsulfonyl) picolinamide] | – | – | > 6.60 | 5.30 to 6.00
CCn1c(N2C[C@@H]3[C@H](C2)[C@H]3c2cnc(C)cn2)nc2c([C@@H](C)Nc3ccc(Cl)nc3C(=O)NS(C)(=O)=O)cc(C)cc2c1=O [Compound 572, 6-chloro-3-(((R)-1-(3-ethyl-6-methyl-2-((1R,5S,6R)-6-(5-methylpyrazin-2-yl)-3-azabicyclo[3.1.0]hexan-3-yl)-4-oxo-3,4-dihydroquinazolin-8-yl)ethyl)amino)-N-(methylsulfonyl) picolinamide] | – | – | > 6.60 | 5.30 to 6.00
Cc1cc([C@@H](C)Nc2ccc(Cl)nc2C(=O)NS(C)(=O)=O)c2nc(N3C[C@@H]4[C@H](C3)[C@H]4c3cc(C)n(C4CC4)n3)n(C)c(=O)c2c1 [Compound 567, 6-chloro-3-(((R)-1-(2-((1R,5S,6R)-6-(1-cyclopropyl-5-methyl-1H-pyrazol-3-yl)-3-azabicyclo[3.1.0]hexan-3-yl)-3,6-dimethyl-4-oxo-3,4-dihydroquinazolin-8-yl)ethyl)amino)-N-(methylsulfonyl) picolinamide] | – | – | 6.30 to 6.60 | ≤ 5.30
Cc1cc([C@@H](C)Nc2ccc(Cl)nc2C(=O)NS(C)(=O)=O)c2nc(N3C[C@H]4C[C@@H]3C[C@H]4c3ccn(C)n3)n(C)c(=O)c2c1 (relative stereo) [Compound 355, 6-chloro-3-(((R)-1-(3,6-dimethyl-2-((1R*,4S*,5R*)-5-(1-methyl-1H-pyrazol-3-yl)-2-azabicyclo[2.2.1]heptan-2-yl)-4-oxo-3,4-dihydroquinazolin-8-yl)ethyl)amino)-N-(methylsulfonyl) picolinamide] | > 6.60 | 5.30 to 6.00 | – | –
Cc1cc([C@@H](C)Nc2ccc(Cl)nc2C(=O)NS(C)(=O)=O)c2nc(N3C[C@H]4C[C@@H]3CN4c3ncc(Cl)cn3)n(C)c(=O)c2c1 [Compound 666, 6-chloro-3-(((R)-1-(2-((1R,4R)-5-(5-chloropyrimidin-2-yl)-2,5-diazabicyclo [2.2.1]heptan-2-yl)-3,6-dimethyl-4-oxo-3,4-dihydroquinazolin-8-yl)ethyl)amino)-N-(methylsulfonyl) picolinamide] | – | – | 6.30 to 6.60 | ≤ 5.30
Cc1cc([C@@H](C)Nc2ccc(Cl)nc2C(=O)NS(C)(=O)=O)c2nc(-c3ccc(C4(C#N)CC4)cc3)n(C)c(=O)c2c1 [Compound 773, (R)-6-chloro-3-((1-(2-(4-(1-cyanocyclopropyl)phenyl)-3,6-dimethyl-4-oxo-3,4-dihydroquinazolin-8-yl)ethyl)amino)-N-(methylsulfonyl) picolinamide] | – | – | > 6.60 | 5.30 to 6.00
CCn1c(N2C[C@@H]3[C@H](C2)[C@H]3c2cnc(C)nc2)nc2c([C@@H](C)Nc3ccc(Cl)nc3C(=O)NS(C)(=O)=O)cc(C)cc2c1=O [Compound 584, 6-chloro-3-(((R)-1-(3-ethyl-6-methyl-2-((1R,5S,6S)-6-(2-methylpyrimidin-5-yl)-3-azabicyclo[3.1.0]hexan-3-yl)-4-oxo-3,4-dihydroquinazolin-8-yl)ethyl)amino)-N-(methylsulfonyl) picolinamide] | – | – | > 6.60 | 5.30 to 6.00
COc1cc([C@H]2[C@@H]3CN(c4nc5c([C@@H](C)Nc6ccc(Cl)nc6C(=O)NS(C)(=O)=O)cc(C)cc5c(=O)n4C)C[C@@H]32)n[nH]1 [Compound 722, 6-chloro-3-(((R)-1-(2-((1R,5S,6R)-6-(5-methoxy-1H-pyrazol-3-yl)-3-azabicyclo[3.1.0]hexan-3-yl)-3,6-dimethyl-4-oxo-3,4-dihydroquinazolin-8-yl)ethyl)amino)-N-(methylsulfonyl) picolinamide] | – | – | 6.30 to 6.60 | 5.30 to 6.00
Cc1cc([C@@H](C)Nc2ccc(Cl)nc2C(=O)NS(C)(=O)=O)c2nc(N3CC4C[C@H]3CN4c3ccc(N(C)C)cc3)n(C)c(=O)c2c1 (stereo in doubt) [Compound 743, 6-chloro-3-(((R)-1-(2-((1S,4R)-5-(4-(dimethylamino)phenyl)-2,5-diazabicyclo [2.2.1]heptan-2-yl)-3,6-dimethyl-4-oxo-3,4-dihydroquinazolin-8-yl)ethyl)amino)-N-(methylsulfonyl) picolinamide] | – | – | 5.30 to 6.00 | ≤ 5.30
Cc1cc([C@@H](C)Nc2ccc(Cl)nc2C(=O)NS(C)(=O)=O)c2nc(N3CCN(c4cnc(C)c(F)c4)CC3)n(C)c(=O)c2c1 [Compound 652, (R)-6-chloro-3-((1-(2-(4-(5-fluoro-6-methylpyridin-3-yl)piperazin-1-yl)-3,6-dimethyl-4-oxo-3,4-dihydroquinazolin-8-yl)ethyl)amino)-N-(methylsulfonyl) picolinamide] | – | – | 6.30 to 6.60 | 5.30 to 6.00
